Data: US20150164762A1, “USE OF ETHANOLAMINE PHOSPHATE” (priority 2012, published 2015)

Tests used:
HEK 293 = assay: WST-8 proliferation test, HEK 293 immortalized model cells; assay type: cell-based, human; conditions: 0% FBS, 96 hours, even at high concentrations
Protocol: 0% FBS RPMI-1640 was used as the medium. 24 hours after seeding the cells were washed with 20 μl per well of PBS, and the medium was replaced with 0% FBS RPMI-1640. Following medium replacement, EP solution with 10 times the set concentration was added 10 μl per well, and a proliferation test (WST-8 assay) was performed 96 hours after addition of EP.

HEKa cells = assay: WST-8 proliferation test, primary normal keratinocytes (HEKa); assay type: cell-based, human; conditions: Epilife basal medium, 21 days
Protocol: HEKa cells (Takara Bio) were seeded to 2×10^4 cells/cm^2 on a 48-well plate. Epilife basal medium (M-EPI-500-CA, Invitrogen) with HKGS Kit (S-001-K, Invitrogen) as an added factor was used as the medium. This HKGS Kit contains bovine pituitary extract, bovine insulin, hydrocortisone, bovine transferrin and human EGF.

`NCCOP(=O)(O)O` [EP, Ethanolamine phosphate] was tested, and the cell proliferation ability (HEK 293) was “absolutely no cell proliferation ability”, the growth-stimulating effect (HEKa cells) was “growth-stimulating effect” and the “minimum concentration giving roughly the maximum growth-stimulating effect” value (HEKa cells) was 15.6 µM.
